# Assay results taken from patent US8604216B2, “Desferrithiocin derivatives and methods of use thereof” (University of Florida Research Foundation, Inc., priority 2003, dated 2013).
# What was measured:
# [1] = system: iron-overloaded Cebus apella monkeys; assay: Iron clearance in iron-overloaded Cebus apella monkeys; assay type: in vivo; settings: oral
# Procedure: (S)-2-(4′,5′-dimethoxyphenyl)-4-methylthiazoline-4-carboxylic acid (2) was administered to iron-overloaded Cebus apella monkeys. The protocol can be found in Bergeron, R. J. et al., “Methoxylatoin of Desazadesferrithiocin Analogues: Enhanced Iron Clearing Efficiency,” J Med Chem. 46:1470-1477 (2003), the contents of which are incorporated herein by reference. Briefly, the monkeys were iron overloaded with iron dextran administered intravenously to result in an iron loading of about 500 mg per kg of body weight. At least 20 half-lives, 60 days, elapsed before the animals were used in experiments evaluating iron chelators. The iron chelator was solubilized in 40% Cremophor RH-40/water (v/v) and were administered orally to the monkeys. Fecal and urine samples were collected at 24 hour intervals beginning 4 days prior to the administration of an iron chelator and continued for 5 days after the chelator was administered. Iron concentrations in stool and urine were determined by flame atomic absorption spectroscopy. Iron chelator efficiency was calculated by dividing the net iron clearance [total iron excretion (stool plus urine) minus background] by the theoretical iron clearance and multiplying by 100. The theoretical clearance of the iron chelator was generated on the basis of a 2:1 ligand/iron complex. At a dose of 114.2 μmol/kg, the efficiency of 2 was calculated to be 14.8±2.9%. […] Approximately 20% of the iron was excreted in the urine, while the majority (approximately 80%) was eliminated in the feces. In a separate experiment, 2 was administered to iron overloaded Cebus apella at a dose of 150 μmol/kg. In this experiment, the iron clearing efficiency was calculated to be 16.1±4.1%. This efficiency was within error of the lower dose of 2 […].
# [2] = system: non-iron overloaded, fasted rats; assay: Iron clearance in bile duct-cannulated rats; assay type: in vivo; settings: male Sprague-Dawley rats
# Procedure: (S)-2-(4′,5′-dimethoxyphenyl)-4-thiazoline-4-carboxylic acid (1) was administered to non-iron overloaded, fasted rats that had been subjected to routine bile duct cannulation. Briefly, male Sprague-Dawley rats averaging 450 g were housed in Nalgene plastic metabolic cages during the experimental period and given free access to water. The animals were anesthetized using sodium pentobarbital (55 mg/kg) administered intraperitoneally. The bile duct was cannulated using 22-gauge polyethylene tubing. The cannula was inserted into the duct about 1 cm from the duodenum and tied snugly in place. After threading through the shoulder, the cannula was passed from the rat to the swivel inside a metal torque-transmitting tether, which was attached to a rodent jacket around the animal's chest. The cannula was directed from the rat to a Gilson microfraction collector (Middleton, Wis.) by a fluid swivel mounted above the metabolic cage. Bile samples were collected at 3 hour intervals for 24 hours. The urine sample was taken at 24 hours and handling was as previously described in Bergeron, R. J., et al., J Med Chem. 34:2072-2078 (1991), the contents of which are incorporated herein by reference.
Structure (SMILES),share of iron eliminated in the feces ([1]; 114.2 μmol/kg),share of iron excreted in the urine ([1]; 114.2 μmol/kg),"iron clearing efficiency ([1]; 114.2 μmol/kg, in 40% Cremophor RH-40/water, stool plus urine iron minus background vs theoretical 2:1 ligand/iron complex) [%]","iron clearing efficiency ([1]; 150 μmol/kg, separate experiment) [%]",tolerability [2],"efficiency of iron excretion ([2]; bile collected for 24 hours, urine at 24 hours)"
"COc1ccc(C2=N[C@@](C)(C(=O)O)CS2)cc1OC [Compound 2, (S)-2-(4′,5′-dimethoxyphenyl)-4-methylthiazoline-4-carboxylic acid]",approximately 80%,Approximately 20%,14.8±2.9,16.1±4.1,–,–
"COc1ccc([C@H]2NC(C(=O)O)=CS2)cc1OC [Compound 1, (S)-2-(4′,5′-dimethoxyphenyl)-4-thiazoline-4-carboxylic acid]",–,–,–,–,tolerated the drug well,less than 0.5%
